Reference: article PMC10829696, “Identification, expression profiles, and binding properties of chemosensory protein 18 in Plutella xylostella (Lepidoptera: Plutellidae)” (Journal of Insect Science, 2024)
Read-outs that look alike come from different tables or passages of the source.

Legend:
PxylCSP18 [1] = biological target: T1, PxylCSP18 (Plutella xylostella, UniProt A0ABQ7Q8H2, Q80P); test: Titration of PxylCSP18 with fluorescent probe 1-NPN (Scatchard plot); format: binding; details: 1 µM protein in 20 mM Tris–HCl pH 7.4, 1-NPN 1 to 17 µM, Scatchard plots; read-out: dissociation constant (K1-NPN)
Experimental: The fluorescence competitive binding assays were performed as described previously ([Fu et al. 2020], [Hua et al. 2021]) with some modifications. Briefly, the emission spectra of the fluorescent probe, N-phenyl-1-naphthylamine (1-NPN, Sigma-Aldrich, USA), were recorded from 350 to 600 nm with 5 nm width of the emission slits and the excitation wavelength was 337 nm. To measure the affinity of 1-NPN to PxylCSP18, 1 µM protein in 20 mM Tris–HCl buffer (pH 7.4) was titrated with 1-NPN to final concentrations ranging from 1 to 17 µM in 1 cm light path quartz cuvette. After incubation for 3 min, the fluorescence intensity for each test was detected on an RF-5301 fluorescence spectrophotometer (Shimadzu, Japan). The average data of the recorded fluorescence intensity at the maximum emission wavelength were linearized using the Scatchard equation, and the dissociation constants for 1-NPN were then calculated ([Sideris et al. 1992], [Hua et al. 2021]). Sixteen ligands, including 3 sex pheromone components ((Z)-11-hexadecenal, (Z)-11-hexadecenyl acetate, and (Z)-11-hexadecenyl alcolol) and some host volatiles (terpene, ketone, aldehyde, alcohol, and ester volatiles), were detected the affinities of PxylCSP18. The final concentrations for each ligand ranging from 1 to 17 µM were added into the mixed solution of 1-NPN probe (1 µM) and PxylCSP18 (1 µM). […]

PxylCSP18 [2] = biological target: T1, PxylCSP18; test: Fluorescence competitive binding assays with 1-NPN as probe; details: for Ki: Ki = [IC50]/(1 + [1-NPN]/K1-NPN)
Experimental: The coding region of mature PxylCSP18 was cloned from the synthesized cDNA with the specific primers, in which an EcoR V and an Xho I restriction sites were introduced (Table 1). The amplified product was cloned into the pET-32a vector (Novagen, USA), followed by transformation into the competent E. coli BL21 (DE3) (Tiangen, China). The expression of PxylCSP18 in the bacteria was induced by 0.6 mM isopropyl-beta-D-thiogalactopyranoside (IPTG) overnight. Subsequently, the bacterial cells were collected through centrifugation and resuspended into phosphate-buffered saline (PBS) solution, then homogenized through sonication on ice using an ultrasonic processor (Sonics Vibra-Cell, USA). PxylCSP18 was purified from the soluble faction using a Ni^2+-NTA column (Roche, Switzerland) through a stepwise elution with 20, 50, 100, 150, and 500 mM imidazole in PBS. […] Finally, the PxylCSP18 was concentrated through ultrafiltration using a centrifugal device (3 kDa, Merck Millipore, USA), and the concentration was determined using the BCA Protein Assay Kit (Sangon, China). The purified recombinant PxylCSP18 was verified by peptide mass fingerprinting (Sangon Biotech, China).
Briefly, the emission spectra of the fluorescent probe, N-phenyl-1-naphthylamine (1-NPN, Sigma-Aldrich, USA), were recorded from 350 to 600 nm with 5 nm width of the emission slits and the excitation wavelength was 337 nm. […] Sixteen ligands, including 3 sex pheromone components ((Z)-11-hexadecenal, (Z)-11-hexadecenyl acetate, and (Z)-11-hexadecenyl alcolol) and some host volatiles (terpene, ketone, aldehyde, alcohol, and ester volatiles), were detected the affinities of PxylCSP18. […] The acquired data were calculated from the Scatchard plots for dissociation constants (Kd) and the curves, assuming PxylCSP18 was active completely and bound to the ligands in a 1:1 ratio at saturation.

PxylCSP11 = test system: PxylCSP11; parameters: method as in Fu et al. 2020; details: ref Fu et al. 2020; cited from earlier work
P. xylostella adults = test: Y-tube olfactometer bioassays after RNAi knockdown of PxylCSP18; format: in vivo, Plutella xylostella; details: day-2 unmated, 10 μg/μl in paraffin oil, dsCSP18 vs dsGFP
Experimental: The pupae the day before eclosion were collected and used for RNA interference. The pupae were anesthetized on ice and then injected with 1 μl of dsRNA (10 μg/μl) at the dorsal site of the abdomen using a Nanoject III micro-injector (Drummond Scientific, Broomall, PA) equipped with glass capillaries prepared using a P-97 micropipette puller (Sutter Instrument Co., Novato, CA). The antennae of day-2 unmated female and male adults were collected to detect the efficiency of RNAi-mediated knockdown of PxylCSP18 through […]. Three independent biological replicates were performed.
The responses of the day-2 unmated female and male adults to the volatile compounds were performed using a glass Y-tube olfactometer with a central glass tube (5 cm long × 2.5 cm ID) and 2 lateral glass arms (15 cm long × 2.5 cm ID) with a 75° inside angle as described previously ([Yan et al. 2023]), with some modifications. Before bioassays, all glasswares were cleaned and washed with absolute alcohol and dried at 100 °C for 5 min. A moistened and activated charcoal-filtered airflow (350 mL/min) was pumped into each source container using an atmospheric sampling instrument (QC-1S, Beijing Institute of Labor Protection Science, Beijing, China). The behavioral response of male and female adults of P. xylostella to trans-2-hexen-1-ol, isopropyl isothiocyanate, myrcene, linalool were then observed. Each component was diluted with paraffin oil to 10 μg/μl. For each chemical, an aliquot of 10 μl was applied to a strip of filter paper (0.5 × 5 cm) and placed in 1 source container. A filter paper strip loaded with the same volume of paraffin oil and placed in the second source container was used as a control. Each test male or female moth was released at the entrance of the central glass tube of the Y-tube olfactometer and observed for 5 min. […] The positions of the arms were reversed after 5 insects to avoid positional bias. The experimental device was cleaned after every 10 insects by washing it with absolute acetone and followed by heating at 100 °C for 5 min. Each concentration of compound stimulus was tested with 30 insects, which successfully made a “choice.” The choice index was calculated as the number of responses of moths to […] divided by the total number of test moths.

P. xylostella = details: ref Song et al. 2022; cited from earlier work
PxylCSP1 = test system: PxylCSP1; parameters: method as in Liu et al. 2010; details: ref Liu et al. 2010; cited from earlier work
[3] = 1-NPN 1 µM, PxylCSP18 1 µM, ligand 1 to 17 µM, concentration of ligand halving the initial fluorescence, N.D. = no significant binding detected, read-out: IC50
[4] = 1-NPN 1 µM, PxylCSP18 1 µM, N.D. = no significant binding detected
[5] = 1-NPN 1 µM, PxylCSP18 1 µM, ligand 1 to 17 µM

T1 sequence (A0ABQ7Q8H2 entry or part of it Q80P): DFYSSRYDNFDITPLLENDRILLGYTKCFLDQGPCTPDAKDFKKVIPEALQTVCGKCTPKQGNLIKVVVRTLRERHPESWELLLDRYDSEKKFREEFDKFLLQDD

c1ccc(Nc2cccc3ccccc23)cc1 [1-NPN, N-phenyl-1-naphthylamine]
Kd (PxylCSP18 [1]): 9.85 µM

CCCCCCCCC=O [1-Nonanal]
IC50 (PxylCSP18 [2]): 7.94 µM

C=CC(O)CC (stereo not drawn) [1-Penten-3-ol]
IC50 (PxylCSP18 [2]): 7.17 µM

CCCC(C)CC(C)C (stereo not drawn) [2,4-dimethylheptane]
affinity of PxylCSP11 (PxylCSP11): good affinities

CCC/C=C/CO [(E)-2-Hexenal-1-ol]
IC50 (PxylCSP18 [2]; [3]): 7.66 µM | Ki (PxylCSP18 [2]; [4]): 6.11 µM | attractive effects to P. xylostella female adults after knocked down the expression of PxylCSP18 (P. xylostella adults): decreased inconspicuously | attractive effects to P. xylostella male adults after knocked down the expression of PxylCSP18 (P. xylostella adults): significantly decreased

CC/C=C\CCOC(C)=O [(Z)-3-Hexenyl acetate]
IC50 (PxylCSP18 [2]): 9.09 µM

CCCC/C=C\CCCCCCCCCC=O [(Z)-11-hexadecenal]
binding affinity of PxylCSP18 to ligand (in words) (PxylCSP18 [2]; [5]): no significant binding affinity

CCCC/C=C\CCCCCCCCCCOC(C)=O [(Z)-11-hexadecenyl acetate]
binding affinity of PxylCSP18 to ligand (in words) (PxylCSP18 [2]; [5]): no significant binding affinity | affinity of PxylCSP11 (PxylCSP11): good affinities

CCCC/C=C\CCCCCCCCCCO [(Z)-11-hexadecenyl alcolol]
binding affinity of PxylCSP18 to ligand (in words) (PxylCSP18 [2]; [5]): no significant binding affinity

C=CCN=C=S [Allyl isothiocyanate]
IC50 (PxylCSP18 [2]): 7.23 µM | affinity of PxylCSP11 (PxylCSP11): good affinities

CCCCN=C=S [Buty1 isothiocyanate]
IC50 (PxylCSP18 [2]): 8.86 µM

CCCCCC=O [Caproldehyde]
IC50 (PxylCSP18 [2]; [3]): 7.49 µM | Ki (PxylCSP18 [2]; [4]): 5.98 µM

CC(C)N=C=S [Isopropyl isothiocyanate]
IC50 (PxylCSP18 [2]): 8.17 µM | attractive effects to P. xylostella female adults after knocked down the expression of PxylCSP18 (P. xylostella adults): significantly weakened | attractive effects to P. xylostella male adults after knocked down the expression of PxylCSP18 (P. xylostella adults): significantly decreased

C=C(C)[C@H]1CC=C(C)CC1 [Limonene]
IC50 (PxylCSP18 [2]; [3]): 1.85 µM | Ki (PxylCSP18 [2]; [4]): 1.48 µM

C=CC(C)(O)CCC=C(C)C (stereo not drawn) [Linalool]
IC50 (PxylCSP18 [2]): 7.61 µM | repellent effects to P. xylostella female adults after knocked down the expression of PxylCSP18 (P. xylostella adults): significantly weakened | repellent effects to P. xylostella male adults after knocked down the expression of PxylCSP18 (P. xylostella adults): decreased inconspicuously

C=CC(=C)CCC=C(C)C [Myrcene]
IC50 (PxylCSP18 [2]): 1.34 µM | repellent effects to P. xylostella female adults after knocked down the expression of PxylCSP18 (P. xylostella adults): decreased inconspicuously | repellent effects to P. xylostella male adults after knocked down the expression of PxylCSP18 (P. xylostella adults): decreased inconspicuously | behavioural effect on P. xylostella (P. xylostella): repellent

CC1(C)[C@H]2O[C@H]2[C@H]2[C@](C)(O)[C@@H]3CC[C@@H]4[C@@H](O)[C@@]3(C[C@@H](O)[C@@]21O)C[C@@]4(C)O [Rhodojaponin-III]
ability of PxylCSP1 to bind (PxylCSP1): remarkable ability to bind

OCCc1ccccc1 [phenethyl alcohol]
affinity of PxylCSP11 (PxylCSP11): good affinities

S=C=NCCc1ccccc1 [phenethyl isothiocyanate]
affinity of PxylCSP11 (PxylCSP11): good affinities

CC(=O)/C=C/C1C(C)=CCCC1(C)C (stereo not drawn) [α-Ionone]
IC50 (PxylCSP18 [2]): 4.19 µM

CC1=CC=C(C(C)C)CC1 [α-Terpinene]
IC50 (PxylCSP18 [2]): 1.29 µM | affinity of PxylCSP11 (PxylCSP11): good affinities

CC1=CC[C@@H](C(C)(C)O)CC1 [α-terpineol]
affinity of PxylCSP11 (PxylCSP11): good affinities

CC1=CCC(C(C)C)=CC1 [γ-Terpinene]
IC50 (PxylCSP18 [2]): 1.21 µM | behavioural effect on P. xylostella (P. xylostella): repellent
